One may read the inhibition as the percentage by which the read-out fell short of the control. The IC50 is the concentration that inhibits the measured activity by half.

Active and inactive are the calls of the source. No cut-off for these calls is given here.

The values that follow come from ChEMBL document CHEMBL4699404, “Arylsulfonyl histamine derivatives as powerful and selective alpha-glucosidase inhibitors” (RSC Med Chem, 2020).

The subject of series [1] is Saccharomyces cerevisiae. As to the kind of experiment: Inhibition of Saccharomyces cerevisiae alpha-glucosidase using p-nitrophenyl-alpha-o-D-glucopyranoside as substrate at 100 uM measured for 10 mins by microplate assay relative to control.
A further series deals with Prunus dulcis. As to the kind of experiment: Inhibition of almonds beta-glucosidase using p-nitrophenyl-beta-o-D-glucopyranoside as substrate at 65 uM measured for 10 mins.
Series [2] has as its system Saccharomyces cerevisiae. Kind of series: Reversible inhibition of Saccharomyces cerevisiae alpha-glucosidase assessed as recovery of enzyme activity preincubated with enzyme for 30 mins followed by 100-fold dilution and challenge with substrate by jump dilution experiment based microplate assay. Details: scale not given: the % may be the effect or the level left.
Series [3] is described as follows: Toxicity against C57BL/6 mouse assessed as locomotory changes at 22.5 mg/kg, po administered via gavage. It is filed as organism-based. Conditions: in vivo.
Another series relates to Kluyveromyces lactis. As to the kind of experiment: Inhibition of Kluyveromyces lactis beta-galactosidase using o-nitrophenyl-beta-o-D-galactopyranoside as substrate at 100 to 2500 uM measured for 10 mins. Conditions: dose microM 100-2500, time 10.0 min.
Series [4] can be described thus: Toxicity against C57BL/6 mouse assessed as behavioural changes at 22.5 mg/kg, po administered via gavage. It is filed as organism-based. Conditions: in vivo.
A short description of series [5]: Toxicity against C57BL/6 mouse assessed as changes in water consumption at 22.5 mg/kg, po administered via gavage measured for 24 hrs. It is filed as organism-based. The note with it: in vivo.
A short description of series [6]: Toxicity against C57BL/6 mouse assessed as general body position changes at 22.5 mg/kg, po administered via gavage. Type of series: organism-based. Conditions: in vivo.
The nature of series [7]: Inhibition of porcine pancreatic alpha-amylase assessed as reduction in conversion of starch to glucose using starch as substrate at 200 uM incubated for 15 mins by starch-iodine method. The arrangement: species or system Sus scrofa. The note with it: pig, 0.25 h.
The test system of series [8] is Saccharomyces cerevisiae. As to the kind of experiment: Inhibition of Saccharomyces cerevisiae alpha-glucosidase using p-nitrophenyl-alpha-o-D-glucopyranoside as substrate at 122 uM measured for 10 mins by microplate assay relative to control.
Series [9] can be described thus: Toxicity against C57BL/6 mouse assessed as changes in food consumption at 22.5 mg/kg, po administered via gavage measured for 24 hrs. Conditions: in vivo. It is filed as organism-based.
For series [10], the target named is Mushroom tyrosinase (Agaricus bisporus) (UniProt O42713+Q00024+C7FF04+C7FF05). Kind of series: Inhibition of mushroom tyrosinase assessed as reduction in dopachrome formation at 40 uM using L-tyrosine as substrate measured for 30 mins by microplate assay.
Series [11] relates to Mus musculus. As to the kind of experiment: Hypoglycemic activity in C57BL/6 mouse assessed as reduction in postprandial blood glucose level at 22.5 mg/kg, po administered via gavage measured after 15 to 90 mins by glucometric analysis. Type of series: functional, organism-based. The note with it: time min 15-90.
Series [12] deals with Acetylcholinesterase (Electrophorus electricus) (UniProt O42275). As to the kind of experiment: Inhibition of electric eel AChE using acetylthiocholine iodide as substrate at 1.5 uM measured for 15 mins by Ellman's method relative to control. Background: DTNB colorimetry detects thiols as they appear.
Series [13] relates to Saccharomyces cerevisiae. Kind of series: Potency index, ratio of acarbose Ki to test compound Ki for competitive inhibition of Saccharomyces cerevisiae alpha-glucosidase using varying levels of p-nitrophenyl-alpha-D-glucopyranoside as substrate by Lineweaver-Burk plot analysis.
Series [14] has as its system Mus musculus. Kind of series: Hypoglycemic activity in C57BL/6 mouse assessed as reduction in sucrose-induced postprandial blood glucose level at 22.5 mg/kg, po administered via gavage and measured after 15 to 90 mins by oral sucrose loading test. It is filed as functional, organism-based. The note with it: time min 15-90.
The target of series [15] is Xanthine dehydrogenase/oxidase (Bos taurus, UniProt P80457). Kind of series: Inhibition of bovine milk xanthine oxidase assessed as reduction in uric acid formation at 3 uM using xanthine as substrate measured for 20 mins by microplate assay. Conditions: cattle.
The nature of series [16]: Inhibition of Kluyveromyces lactis beta-galactosidase using o-nitrophenyl-beta-o-D-galactopyranoside as substrate measured for 10 mins.
A short description of series [17]: Inhibition of almonds beta-glucosidase using p-nitrophenyl-beta-o-D-glucopyranoside as substrate measured for 10 mins. The arrangement: species or system Prunus dulcis.

Xanthine dehydrogenase/oxidase, sequence (P80457 whole entry): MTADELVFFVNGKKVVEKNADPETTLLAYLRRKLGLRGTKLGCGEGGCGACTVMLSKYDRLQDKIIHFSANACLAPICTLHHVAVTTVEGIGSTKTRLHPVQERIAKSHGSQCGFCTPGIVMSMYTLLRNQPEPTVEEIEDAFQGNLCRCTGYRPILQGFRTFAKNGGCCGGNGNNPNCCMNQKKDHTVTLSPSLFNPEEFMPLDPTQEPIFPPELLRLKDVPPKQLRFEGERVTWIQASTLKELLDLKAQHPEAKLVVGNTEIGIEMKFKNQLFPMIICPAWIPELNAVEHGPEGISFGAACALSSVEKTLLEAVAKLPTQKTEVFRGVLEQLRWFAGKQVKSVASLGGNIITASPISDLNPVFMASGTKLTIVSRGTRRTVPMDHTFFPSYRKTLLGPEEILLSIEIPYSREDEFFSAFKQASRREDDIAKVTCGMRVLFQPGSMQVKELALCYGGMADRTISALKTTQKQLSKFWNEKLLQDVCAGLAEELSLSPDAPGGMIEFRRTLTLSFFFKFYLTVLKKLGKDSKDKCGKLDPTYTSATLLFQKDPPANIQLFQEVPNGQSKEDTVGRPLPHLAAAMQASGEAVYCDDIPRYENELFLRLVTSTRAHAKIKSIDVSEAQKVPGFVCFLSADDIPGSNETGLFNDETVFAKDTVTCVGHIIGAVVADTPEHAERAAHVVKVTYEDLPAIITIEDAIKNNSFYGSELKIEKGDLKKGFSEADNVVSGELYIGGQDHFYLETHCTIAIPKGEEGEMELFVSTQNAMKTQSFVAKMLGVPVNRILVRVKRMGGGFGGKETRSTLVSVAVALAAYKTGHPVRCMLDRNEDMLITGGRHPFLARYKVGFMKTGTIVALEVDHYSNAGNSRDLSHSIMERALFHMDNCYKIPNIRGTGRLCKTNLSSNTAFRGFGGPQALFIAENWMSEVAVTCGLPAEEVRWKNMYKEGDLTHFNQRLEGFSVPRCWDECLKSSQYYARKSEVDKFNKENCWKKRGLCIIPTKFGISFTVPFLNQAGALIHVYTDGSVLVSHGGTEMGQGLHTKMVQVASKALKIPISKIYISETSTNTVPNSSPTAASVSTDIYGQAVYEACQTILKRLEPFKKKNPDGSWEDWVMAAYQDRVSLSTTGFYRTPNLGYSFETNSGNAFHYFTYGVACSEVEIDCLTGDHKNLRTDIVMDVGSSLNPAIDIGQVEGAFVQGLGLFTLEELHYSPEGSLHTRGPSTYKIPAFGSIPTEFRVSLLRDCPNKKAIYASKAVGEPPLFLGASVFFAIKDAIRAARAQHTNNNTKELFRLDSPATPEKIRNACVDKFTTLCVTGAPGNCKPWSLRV
Acetylcholinesterase (Electrophorus electricus), sequence (O42275 24-633 limits assumed): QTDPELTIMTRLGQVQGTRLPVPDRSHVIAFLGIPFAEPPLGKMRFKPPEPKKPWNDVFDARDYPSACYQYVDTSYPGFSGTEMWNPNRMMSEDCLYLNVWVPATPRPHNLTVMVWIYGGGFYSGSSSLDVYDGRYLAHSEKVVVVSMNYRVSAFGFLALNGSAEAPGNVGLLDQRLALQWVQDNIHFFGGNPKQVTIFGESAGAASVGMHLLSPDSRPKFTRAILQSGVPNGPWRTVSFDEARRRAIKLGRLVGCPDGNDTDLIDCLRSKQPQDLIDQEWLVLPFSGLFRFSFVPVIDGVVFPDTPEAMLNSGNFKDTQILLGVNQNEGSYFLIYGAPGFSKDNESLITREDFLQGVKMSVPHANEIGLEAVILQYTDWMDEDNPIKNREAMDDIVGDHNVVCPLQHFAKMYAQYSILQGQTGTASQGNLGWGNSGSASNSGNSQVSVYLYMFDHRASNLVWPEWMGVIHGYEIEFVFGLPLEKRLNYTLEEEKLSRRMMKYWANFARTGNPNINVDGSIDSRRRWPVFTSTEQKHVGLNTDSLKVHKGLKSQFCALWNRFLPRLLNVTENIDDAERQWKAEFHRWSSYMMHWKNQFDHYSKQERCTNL

Compound `O=S(=O)(NCCc1cn(S(=O)(=O)c2ccccc2)cn1)c1ccccc1` yielded an inhibition in the series with Saccharomyces cerevisiae [1] of over 50%.

Take `O=S(=O)(NCCc1cn(S(=O)(=O)c2ccc(C(F)(F)F)cc2)cn1)c1ccc(C(F)(F)F)cc1`: the inhibition result (with Prunus dulcis; in the series with Kluyveromyces lactis; in series [10]) was “inactive” throughout. For the same compound, the inhibition in the series with Saccharomyces cerevisiae [1] was over 50%; in the series with Saccharomyces cerevisiae [8], 79.9%; in series [12], 2.31%. Moreover, the Activity in the series with Saccharomyces cerevisiae [2] was 97%; in [3], “Non-Toxic”; in [4], “Non-Toxic”; in series [5], “Non-Toxic”; in series [6], “Non-Toxic”; in series [9], “Non-Toxic”. Also, the “inhibition (INH)” value in series [7] and in series [15] was “Not Active” in each case. Also, the outcome in the series with Mus musculus [11] and in the series with Mus musculus [14] was Active. In addition, the Ratio Ki in the series on Saccharomyces cerevisiae [13] came to 7.

Compound `OC[C@H]1NC[C@H](O)[C@@H](O)[C@H]1O` gave an IC50 in [16] of 90 µM.

Regarding `O=S(=O)(NCCc1c[nH]cn1)c1ccccc1`, the inhibition in the series on Saccharomyces cerevisiae [1] was under 50%.

`OC[C@H]1NC[C@H](O)[C@@H](O)[C@@H]1O` [DUVOGLUSTAT] gave an IC50 in series [17] of 65.2 µM.

Compound `O=S(=O)(NCCc1cn(S(=O)(=O)c2ccc(F)cc2)cn1)c1ccc(F)cc1` showed an inhibition in the series on Saccharomyces cerevisiae [1] of over 50%.

Regarding `O=S(=O)(NCCc1c[nH]cn1)c1ccc(F)cc1C(F)(F)F`, the inhibition in the series on Saccharomyces cerevisiae [1] was under 50%.

`O=S(=O)(NCCc1cn(S(=O)(=O)c2ccc(F)cc2Cl)cn1)c1ccc(F)cc1Cl` returned an inhibition in the series with Saccharomyces cerevisiae [1] of over 50%.

The compound `O=S(=O)(NCCc1cn(S(=O)(=O)c2ccc(F)cc2C(F)(F)F)cn1)c1ccc(F)cc1C(F)(F)F` displayed an inhibition in the series with Saccharomyces cerevisiae [1] of over 50%.

On to `O=S(=O)(NCCc1cn(S(=O)(=O)c2cc(F)c(F)c(F)c2)cn1)c1cc(F)c(F)c(F)c1`, for which, in the series with Saccharomyces cerevisiae [1], the inhibition is over 50%.

With `COc1ccc(S(=O)(=O)NCCc2cn(S(=O)(=O)c3ccc(OC)c(F)c3)cn2)cc1F`, the inhibition in the series on Saccharomyces cerevisiae [1] was over 50%.

Regarding `Cc1ccc(S(=O)(=O)NCCc2c[nH]cn2)cc1`, the inhibition with Saccharomyces cerevisiae [1] was under 50%.

In the series on Saccharomyces cerevisiae [1], `O=S(=O)(NCCc1c[nH]cn1)c1cc(F)c(F)c(F)c1` showed an inhibition of under 50%.

As for `Cc1ccc(F)c(S(=O)(=O)NCCc2cn(S(=O)(=O)c3cc(C)ccc3F)cn2)c1`, the inhibition entry (in the series with Prunus dulcis; in the series on Kluyveromyces lactis; in [10]) was “inactive” in each case. Further, the values for the inhibition (in the series with Saccharomyces cerevisiae [1]; in the series with Saccharomyces cerevisiae [8]; in series [12]) were over 50%, 72.2% and 7.14%, respectively. The “inhibition (INH)” value in series [7] and in [15] was “Not Active” throughout.

In turn, `O=S(=O)(NCCc1cn(S(=O)(=O)c2c(F)c(F)c(F)c(F)c2F)cn1)c1c(F)c(F)c(F)c(F)c1F` registered an inhibition in the series with Saccharomyces cerevisiae [1] of over 50%.

The compound `O=S(=O)(NCCc1c[nH]cn1)c1ccc(C(F)(F)F)cc1` registered an inhibition with Saccharomyces cerevisiae [1] of under 50%.

As for `COc1ccc(S(=O)(=O)NCCc2c[nH]cn2)cc1F`, the inhibition in the series with Saccharomyces cerevisiae [1] was under 50%.

`Cc1ccc(F)c(S(=O)(=O)NCCc2c[nH]cn2)c1` came in with an inhibition in the series on Saccharomyces cerevisiae [1] of under 50%.

On to `O=S(=O)(NCCc1c[nH]cn1)c1ccc(F)cc1`, for which the inhibition in the series with Saccharomyces cerevisiae [1] is under 50%.

`Cc1ccc(S(=O)(=O)NCCc2cn(S(=O)(=O)c3ccc(C)cc3)cn2)cc1` yielded an inhibition in the series with Saccharomyces cerevisiae [1] of over 50%.
